Measured values as given in BindingDB's records for doi:10.1016/j.ejmech.2020.112422 (China Medical University, 2020).

Columns and labels:
[1] = Inhibition of ABCB1 in FLp-In-293 cells assessed as potentiation of vincristine-induced cytotoxicity by measuring vincristine IC50 at 5 uM measured after 72 hrs by SRB assay (Rvb = 6 +/- 0.2 nM)
[2] = Inhibition of ABCB1 in human HeLa S3 cells assessed as potentiation of paclitaxel-induced cytotoxicity by measuring paclitaxel IC50 at 2.5 uM measured after 72 hrs by SRB assay (Rvb = 26.50 +/- 4.1 nM)
[3] = Inhibition of ABCB1 in human HeLa S3 cells assessed as potentiation of doxorubicin-induced cytotoxicity by measuring doxorubicin IC50 at 2.5 uM measured after 72 hrs by SRB assay (Rvb = 242 +/- 5 nM)
[4] = Inhibition of ABCB1 in human KB-VIN cells assessed as potentiation of vincristine-induced cytotoxicity by measuring vincristine IC50 at 5 uM measured after 72 hrs by SRB assay (Rvb = 2867 +/- 142 nM)
[5] = Inhibition of ABCB1 in human KB-VIN cells assessed as potentiation of paclitaxel-induced cytotoxicity by measuring paclitaxel IC50 at 2.5 uM measured after 72 hrs by SRB assay (Rvb = 1762 +/- 63 nM)
[6] = Inhibition of ABCB1 in human HeLa S3 cells assessed as potentiation of paclitaxel-induced cytotoxicity by measuring paclitaxel IC50 at 5 uM measured after 72 hrs by SRB assay (Rvb = 26.50 +/- 4.1 nM)
[7] = Inhibition of ABCB1 in human HeLa S3 cells assessed as potentiation of vincristine-induced cytotoxicity by measuring vincristine IC50 at 5 uM measured after 72 hrs by SRB assay (Rvb = 4.55 +/- 0.28 nM)
[8] = Inhibition of ABCB1 in human KB-VIN cells assessed as potentiation of vincristine-induced cytotoxicity by measuring vincristine IC50 at 2.5 uM measured after 72 hrs by SRB assay (Rvb = 2867 +/- 142 nM)
[9] = Inhibition of ABCB1 in FLp-In-293 cells assessed as potentiation of paclitaxel-induced cytotoxicity by measuring paclitaxel IC50 at 5 uM measured after 72 hrs by SRB assay (Rvb = 11.8 +/- 1.13 nM)
[10] = Inhibition of ABCB1 in human KB-VIN cells assessed as potentiation of paclitaxel-induced cytotoxicity by measuring paclitaxel IC50 at 5 uM measured after 72 hrs by SRB assay (Rvb = 1762 +/- 63 nM)
[11] = Inhibition of human full-length ABCB1 expressed in FLp-In-293 cells assessed as potentiation of paclitaxel-induced cytotoxicity by measuring paclitaxel IC50 at 2.5 uM measured after 72 hrs by SRB assay (Rvb = 797 +/- 73 nM)
[12] = Inhibition of ABCB1 in FLp-In-293 cells assessed as potentiation of paclitaxel-induced cytotoxicity by measuring paclitaxel IC50 at 2.5 uM measured after 72 hrs by SRB assay (Rvb = 11.8 +/- 1.13 nM)
[13] = Inhibition of ABCB1 in FLp-In-293 cells assessed as potentiation of doxorubicin-induced cytotoxicity by measuring doxorubicin IC50 at 2.5 uM measured after 72 hrs by SRB assay (Rvb = 80 +/- 10 nM)
[14] = Inhibition of ABCB1 in FLp-In-293 cells assessed as potentiation of vincristine-induced cytotoxicity by measuring vincristine IC50 at 2.5 uM measured after 72 hrs by SRB assay (Rvb = 6 +/- 0.2 nM)
[15] = Inhibition of ABCB1 in human HeLa S3 cells assessed as potentiation of vincristine-induced cytotoxicity by measuring vincristine IC50 at 2.5 uM measured after 72 hrs by SRB assay (Rvb = 4.55 +/- 0.28 nM)
[16] = Inhibition of ABCB1 in human HeLa S3 cells assessed as potentiation of doxorubicin-induced cytotoxicity by measuring doxorubicin IC50 at 5 uM measured after 72 hrs by SRB assay (Rvb = 242 +/- 5 nM)
[17] = Inhibition of human full-length ABCB1 expressed in FLp-In-293 cells assessed as potentiation of vincristine-induced cytotoxicity by measuring vincristine IC50 at 2.5 uM measured after 72 hrs by SRB assay (Rvb = 823 +/- 16 nM)
[18] = Inhibition of ABCB1 in human KB-VIN cells assessed as potentiation of doxorubicin-induced cytotoxicity by measuring doxorubicin IC50 at 5 uM measured after 72 hrs by SRB assay (Rvb = 4736 +/- 59 nM)
[19] = Inhibition of human full-length ABCB1 expressed in FLp-In-293 cells assessed as potentiation of vincristine-induced cytotoxicity by measuring vincristine IC50 at 5 uM measured after 72 hrs by SRB assay (Rvb = 823 +/- 16 nM)
[20] = Inhibition of ABCB1 in human KB-VIN cells assessed as potentiation of doxorubicin-induced cytotoxicity by measuring doxorubicin IC50 at 2.5 uM measured after 72 hrs by SRB assay (Rvb = 4736 +/- 59 nM)
[21] = Inhibition of human full-length ABCB1 expressed in FLp-In-293 cells assessed as potentiation of doxorubicin-induced cytotoxicity by measuring doxorubicin IC50 at 5 uM measured after 72 hrs by SRB assay (Rvb = 2264 +/- 196 nM)
[22] = Inhibition of ABCB1 in FLp-In-293 cells assessed as potentiation of doxorubicin-induced cytotoxicity by measuring doxorubicin IC50 at 5 uM measured after 72 hrs by SRB assay (Rvb = 80 +/- 10 nM)
[23] = Inhibition of human full-length ABCB1 expressed in FLp-In-293 cells assessed as potentiation of paclitaxel-induced cytotoxicity by measuring paclitaxel IC50 at 5 uM measured after 72 hrs by SRB assay (Rvb = 797 +/- 73 nM)
[24] = Inhibition of human full-length ABCB1 expressed in FLp-In-293 cells assessed as potentiation of doxorubicin-induced cytotoxicity by measuring doxorubicin IC50 at 2.5 uM measured after 72 hrs by SRB assay (Rvb = 2264 +/- 196 nM)

SMILES: COc1ccc(-c2cc(OC(C)=O)c3c(-c4cccs4)c(N(C(C)=O)C(C)=O)oc3c2)cc1
- IC50 [1]: 4 nM
- IC50 [2]: 14 nM
- IC50 [3]: 105 nM
- IC50 [4]: 314 nM
- IC50 [5]: 652 nM
- IC50 [6]: 14 nM
- IC50 [7]: 5.2 nM
- IC50 [8]: 501 nM
- IC50 [9]: 10 nM
- IC50 [10]: 597 nM
- IC50 [11]: 647 nM
- IC50 [12]: 11 nM
- IC50 [13]: 87 nM
- IC50 [14]: 4.5 nM
- IC50 [15]: 5.7 nM
- IC50 [16]: 102 nM
- IC50 [17]: 663 nM
- IC50 [18]: 1500 nM
- IC50 [19]: 582 nM
- IC50 [20]: 1740 nM
- IC50 [21]: 677 nM
- IC50 [22]: 82 nM
- IC50 [23]: 645 nM
- IC50 [24]: 874 nM

SMILES: COc1ccc(-c2cc(OC(C)=O)c3c(-c4cccs4)c(NC(=O)c4ccccc4Cl)oc3c2)cc1
- IC50 [1]: 0.82 nM
- IC50 [2]: 9.6 nM
- IC50 [3]: 111 nM
- IC50 [4]: 7.6 nM
- IC50 [5]: 80 nM
- IC50 [6]: 8.8 nM
- IC50 [7]: 2.2 nM
- IC50 [8]: 37 nM
- IC50 [9]: 6.3 nM
- IC50 [10]: 21 nM
- IC50 [11]: 602 nM
- IC50 [12]: 6.4 nM
- IC50 [13]: 77 nM
- IC50 [14]: 0.88 nM
- IC50 [15]: 3.9 nM
- IC50 [16]: 86 nM
- IC50 [17]: 114 nM
- IC50 [18]: 102 nM
- IC50 [19]: 9.2 nM
- IC50 [21]: 502 nM
- IC50 [22]: 73 nM
- IC50 [23]: 91 nM
- IC50 [24]: 564 nM

SMILES: COc1ccc(-c2cc(OC(C)=O)c3c(-c4cccs4)c(NC(=O)c4ccccc4C)oc3c2)cc1
- IC50 [1]: 0.83 nM
- IC50 [2]: 11 nM
- IC50 [3]: 116 nM
- IC50 [4]: 6.5 nM
- IC50 [5]: 345 nM
- IC50 [6]: 8.9 nM
- IC50 [7]: 3.7 nM
- IC50 [8]: 36 nM
- IC50 [9]: 7.2 nM
- IC50 [10]: 46 nM
- IC50 [11]: 109 nM
- IC50 [12]: 9.1 nM
- IC50 [13]: 89 nM
- IC50 [14]: 0.88 nM
- IC50 [15]: 5.1 nM
- IC50 [16]: 103 nM
- IC50 [17]: 84 nM
- IC50 [18]: 397 nM
- IC50 [19]: 8.9 nM
- IC50 [20]: 1550 nM
- IC50 [21]: 478 nM
- IC50 [22]: 82 nM
- IC50 [23]: 55 nM
- IC50 [24]: 525 nM

SMILES: COc1ccc(-c2cc(OC(C)=O)c3c(-c4cccs4)c(NC(=O)c4cccc(F)c4)oc3c2)cc1
- IC50 [1]: 3.7 nM
- IC50 [2]: 12 nM
- IC50 [3]: 93 nM
- IC50 [4]: 12 nM
- IC50 [5]: 116 nM
- IC50 [6]: 11 nM
- IC50 [7]: 4.7 nM
- IC50 [8]: 60 nM
- IC50 [9]: 5.3 nM
- IC50 [10]: 48 nM
- IC50 [11]: 621 nM
- IC50 [12]: 6.6 nM
- IC50 [13]: 81 nM
- IC50 [14]: 6.3 nM
- IC50 [15]: 5.4 nM
- IC50 [16]: 87 nM
- IC50 [17]: 96 nM
- IC50 [18]: 1400 nM
- IC50 [19]: 25 nM
- IC50 [20]: 2210 nM
- IC50 [21]: 504 nM
- IC50 [22]: 82 nM
- IC50 [23]: 77 nM
- IC50 [24]: 559 nM
